Measured values: patent publication US7728106B2, “HIV-1 glycopeptides and derivatives; preparation and applications thereof” (University of Maryland Biotechnology Institute, priority 2005, dated 2010)

Columns and labels:
furin = target: T1, furin (Homo sapiens, UniProt P09958); experiment: Stability toward furin digestion; assay type: in vitro ADME; conditions: 40 μM peptide, phosphate buffer pH 7.0, 10 units furin, 16 hours, 30° C.; HPLC; FIG. 7A
T1 construct: purchased Sigma
Description: To test this, a quick experiment was performed on the resistance of the synthetic V3 glycopeptides against different proteases. The protease furin was reported to be able to cleave the V3 domain of gp120 at the sequence 302-312 [134-136]. Therefore, the stability of the synthetic glycopeptides toward furin digestion was initially examined. The enzyme was obtained from Sigma and the digestion was monitored by HPLC and ESI-MS analysis.
(§1) FIG. 7A is a graph for digestion with furin, under reaction conditions involving a solution of each peptide (40 μM) in a phosphate buffer (pH 7.0, total 30 μl) incubated with 10 units of furin (Sigma; a unit being defined by the amount of furin that hydrolyzes one pmol substrate in 1 minute under the optimal condition) for 16 hours at 30° C., and the remaining starting peptide was quantified by HPLC and confirmed by ESI-MS determination. FIG. 7B is a graph for digestion with pronase under reaction conditions involving a solution of each peptide (40 μM) in a phosphate buffer (pH 7.4, total 100 μl) incubated with 125 ng of pronase (Sigma) for 40 minutes at 30° C., and the remaining starting peptide was quantified by HPLC and confirmed by ESI-MS determination.
(§2) Next, the stability of the V3 glycopeptides against pronase digestion was tested. The pronase (Actinase E, Sigma) is a mixture of at least three proteolytic activities.

pronase (Actinase E) = experiment: Stability toward pronase digestion; assay type: in vitro ADME; conditions: 40 μM peptide, phosphate buffer pH 7.4, 125 ng pronase, 40 minutes, 30° C.; HPLC; FIG. 7B
Description: as §1, §2

T1 sequence (P09958 108-794, species assumed): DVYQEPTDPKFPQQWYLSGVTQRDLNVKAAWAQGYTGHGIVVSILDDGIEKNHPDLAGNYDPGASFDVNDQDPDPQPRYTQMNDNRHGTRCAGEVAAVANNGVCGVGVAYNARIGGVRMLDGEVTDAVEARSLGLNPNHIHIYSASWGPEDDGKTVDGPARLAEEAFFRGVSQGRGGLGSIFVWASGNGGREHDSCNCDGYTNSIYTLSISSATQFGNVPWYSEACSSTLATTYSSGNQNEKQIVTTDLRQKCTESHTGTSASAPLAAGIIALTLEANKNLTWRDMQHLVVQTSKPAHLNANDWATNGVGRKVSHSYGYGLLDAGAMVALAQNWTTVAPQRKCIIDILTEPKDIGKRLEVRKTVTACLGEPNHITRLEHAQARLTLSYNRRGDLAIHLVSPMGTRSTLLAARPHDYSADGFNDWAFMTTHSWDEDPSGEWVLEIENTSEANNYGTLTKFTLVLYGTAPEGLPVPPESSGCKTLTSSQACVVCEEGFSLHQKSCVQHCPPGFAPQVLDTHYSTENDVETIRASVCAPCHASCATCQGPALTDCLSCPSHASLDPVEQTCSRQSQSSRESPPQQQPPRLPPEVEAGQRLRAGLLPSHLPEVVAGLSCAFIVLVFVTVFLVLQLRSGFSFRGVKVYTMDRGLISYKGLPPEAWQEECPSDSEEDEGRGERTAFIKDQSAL

CC[C@H](C)[C@@H]1NC(=O)[C@H](CCCCN)NC(=O)CNC(=O)[C@H]([C@@H](C)CC)NC(=O)[C@H]([C@@H](C)O)NC(=O)[C@H](C(C)C)NC(=O)[C@H](Cc2ccccc2)NC(=O)[C@H](C)NC(=O)[C@H](CCCNC(=N)N)NC(=O)CNC(=O)[C@@H]2CCCN2C(=O)CNC(=O)[C@H](CCCNC(=N)N)NC(=O)[C@H](CCC(N)=O)NC(=O)[C@H]([C@@H](C)CC)NC(=O)[C@H](CCCNC(=N)N)NC(=O)[C@H]([C@@H](C)CC)NC(=O)[C@H](CCCNC(=N)N)NC(=O)[C@H](CCCCN)NC(=O)[C@H](CCCNC(=N)N)NC(=O)[C@H]([C@@H](C)O)NC(=O)[C@H](CC(N)=O)NC(=O)[C@H](CC(N)=O)NC(=O)[C@H](CC(N)=O)NC(=O)[C@@H]2CCCN2C(=O)[C@H](CCCNC(=N)N)NC(=O)[C@H]([C@@H](C)O)NC(=O)[C@@H](NC(=O)[C@H](CC(=O)N[C@@H]2O[C@H](CO)[C@@H](O[C@@H]3O[C@H](CO)[C@@H](O[C@@H]4O[C@H](CO[C@H]5O[C@H](CO)[C@@H](O)[C@H](O)[C@@H]5O)[C@@H](O)[C@H](O[C@H]5O[C@H](CO)[C@@H](O)[C@H](O)[C@@H]5O)[C@@H]4O)[C@H](O)[C@H]3NC(C)=O)[C@H](O)[C@H]2NC(C)=O)NC(=O)[C@@H](NC(=O)[C@H](CCC(=O)O)NC(=O)[C@@H](NC(=O)[C@H](CO)NC(=O)[C@@H](N)[C@@H](C)O)C(C)C)[C@@H](C)CC)CSSC[C@@H](C(=O)N[C@@H](CC(=O)N[C@@H]2O[C@H](CO)[C@@H](O[C@@H]3O[C@H](CO)[C@@H](O[C@@H]4O[C@H](CO[C@H]5O[C@H](CO)[C@@H](O)[C@H](O)[C@@H]5O)[C@@H](O)[C@H](O[C@H]5O[C@H](CO)[C@@H](O)[C@H](O)[C@@H]5O)[C@@H]4O)[C@H](O)[C@H]3NC(C)=O)[C@H](O)[C@H]2NC(C)=O)C(=O)N[C@H](C(=O)N[C@@H](CO)C(=O)N[C@@H](CCCNC(=N)N)C(=O)N[C@@H](C)C(N)=O)[C@@H](C)CC)NC(=O)[C@H](Cc2c[nH]cn2)NC(=O)[C@H](C)NC(=O)[C@H](CCC(N)=O)NC(=O)[C@H](CCCNC(=N)N)NC(=O)[C@H](CCSC)NC(=O)[C@H](CC(N)=O)NC(=O)CNC1=O [HB-V3-(G2M3)2]
stability toward furin digestion (remaining starting peptide) (furin): most stable | stability toward pronase digestion (remaining starting peptide) (pronase (Actinase E)): most stable
